Test results taken from the NIST ThermoML archive (doi:10.1007/s10765-011-1128-2).

Conditions: Crystal

O [water]
Conditions | vapor or sublimation pressure [kPa]
223.15 K | 0.003925
228.15 K | 0.007147
233.15 K | 0.01277
238.14 K | 0.02221
243.16 K | 0.03791
248.16 K | 0.06315
253.14 K | 0.103
258.15 K | 0.165
263.15 K | 0.2596
268.15 K | 0.4016
273.16 K | 0.6117
